Assay results taken from PMC9501768, “A New Class of Tunable Acid-Sensitive Linkers for Native Drug Release Based on the Trityl Protecting Group” (Bioconjugate Chemistry, 2022).
Read-outs that look alike come from different tables or passages of the source.

Tests used:
[1] = Release of native API from API-linker construct in buffer (UHPLC, first-order fit); type: physicochemical
Procedure: Release of DMXAA-amine 1 from the linker construct 12 (method described in S3.1) was measured at 37 °C for 24 h. At set time points, the concentration of the native compound 1 in a buffer of different pH values was measured by ultrahigh performance liquid chromatography (UHPLC) as shown in Figure 3.
The half-life values (t1/2) were determined from the slope of the first-order kinetic curves fitted through the release curve and are shown in Table 2. Details are provided in Section S3 of the Supporting Information. […]
S3: In vitro release protocol and stability control
S3.1 Release of API from API-linker construct
API-linker constructs 12-16, 17 and 18 were dissolved in DMSO at 1 mg/mL. This was then further diluted 10x in 20 mM sodium phosphate buffer 130 mM NaCl pH 7.4, 100 mM sodium citrate buffer 50 mM NaCl pH 6.5, 20 mM ammonium acetate 130 mM NaCl pH 5.0 or if needed 100 mM sodium phosphate buffer 50 mM NaCl pH 3.0. These dilutions were incubated at 37°C in the sample tray and at different timepoints, the concentration of free API 1, 2, or 3 was measured on a H-class UPLC system (Waters) (Figure S7 and S8)
Figure S 7: Chromatogram of 15 at 37°C, pH 7.4 t=0 hours
(1 picture or pasted object on this page, not shown here)
Figure S 8: Chromatogram of 15 at 37°C, pH 7.4, t= 12 hours […]
injection volume, 30 °C column temperature. Run with the following gradient: […]
Time (min) Flow rate %A %B
With A: 25 mM Ammonium acetate buffer pH 5.0 and B: acetonitrile.
2: Acquity HSS T3 1.7 μm, 50 x 2.1 mm column for 18 at 275 nm, 5.0 µL injection volume, 30 °C column temperature. Run with the following gradient: […]
Time (min) Flow rate % A % B
With A: phosphate buffer pH 2.5 and B: methanol.
3: Acquity BEH C18 1.7 μm, 50 x 2.1 mm for 18 at 233 nm, 2.0 µL injection volume, 30 °C column […]
With A: 10 mM ammonium bicarbonate pH 9.6 and B: acetonitrile.
Measured concentrations were plotted using GraphPad Prism 9 and fitted based on first order kinetics.
All fitted lines complied with an R2>0.95. This gave the half-life and plateau when this was not reached within the measured timeframe. […]
Size of all particles were confirmed to be between 55 and 70 nm.

[2] = as above; type: physicochemical; conditions: pH 5.0, 37 °C
[3] = design: method as in PMID 14644; conditions: doxorubicin amine nitrogen bound to trityl; cited from earlier work
[4] = ammonium acetate buffer, pH 5, API-trityl linker construct in buffer, pH 5.0, 37 °C, read-out: t1/2 pH 5.0 (converted)
[5] = sodium citrate buffer, pH 6.5, API-trityl linker construct in buffer, pH 6.5, 37 °C, read-out: t1/2 pH 6.5 (converted)
[6] = sodium phosphate buffer, pH 7.4, API-trityl linker construct in buffer, pH 7.4, 37 °C, values for 17 are estimations (doxorubicin precipitation), read-out: t1/2 pH 7.4 (converted)

half-life at 0.1 mg/mL [1, 4] [h] | half-life at 0.1 mg/mL [1, 5] [h] | half-life at 0.1 mg/mL [1, 6] [h] | Structure (SMILES) | further results
< 1 | – | – | COc1cccc2c1C(=O)c1c(O)c3c(c(O)c1C2=O)C[C@@](O)(C(=O)CO)C[C@@H]3O[C@H]1C[C@H](N)[C@H](O)[C@H](C)O1 [compound 2, doxorubicin, reference compound] | –
– | – | – | Nc1ccn([C@@H]2O[C@H](CO)[C@@H](O)C2(F)F)c(=O)n1 [compound 3, gemcitabine] | release at pH 5.0 within 72 h [2]: no detectable release
1.8 ± 0.1 | 83 ± 27 | – | C=C(C)C(=O)NCCCNC(=O)c1cccc(C(Nc2ccc(CC(=O)[O-])c3oc4c(C)c(C)ccc4c(=O)c23)(c2ccc(OC)cc2)c2ccc(OC)cc2)c1.[Li+] [compound 12] | release of native DMXAA-amine 1 at pH 5 ([1]; construct in buffer, pH 5, 37 °C, within 12 h): 100%; release of native DMXAA-amine 1 at pH 6.5 ([1]; construct in buffer, pH 6.5, 37 °C, over 24 h): ~20%; release of native DMXAA-amine 1 at pH 7.4 ([1]; construct in buffer, pH 7.4, 37 °C, over 24 h): Hardly any release
< 1 | 1.2 ± 0.1 | 4.2 ± 0.2 | C=C(C)C(=O)NCCCNC(=O)c1ccc(C(Nc2ccc(CC(=O)[O-])c3oc4c(C)c(C)ccc4c(=O)c23)(c2ccc(OC)c(OC)c2)c2ccc(OC)c(OC)c2)cc1.[Li+] [compound 13] | –
< 1 | < 1 | < 1 | C=C(C)C(=O)NCCCNC(=O)c1ccc(C(Nc2ccc(CC(=O)[O-])c3oc4c(C)c(C)ccc4c(=O)c23)(c2ccc(OC)cc2OC)c2ccc(OC)cc2OC)cc1.[Li+] [compound 14] | –
< 1 | 1.9 ± 0.2 | – | C=C(C)C(=O)NCCCNC(=O)c1ccc(C(Nc2ccc(CC(=O)[O-])c3oc4c(C)c(C)ccc4c(=O)c23)(c2ccc(OC)c(C)c2)c2ccc(OC)c(C)c2)cc1.[Li+] [compound 15] | –
< 1 | < 1 | 2.3 ± 0.1 | C=C(C)C(=O)NCCCNC(=O)c1cccc(C(Nc2ccc(CC(=O)[O-])c3oc4c(C)c(C)ccc4c(=O)c23)(c2ccc(OC)c(OC)c2)c2ccc(OC)c(OC)c2)c1.[Li+] [compound 16] | –
– | – | – | C=C(C)C(=O)NCCCNC(=O)c1cccc(C(N[C@H]2C[C@H](O[C@H]3C[C@](O)(C(=O)CO)Cc4c(O)c5c(c(O)c43)C(=O)c3c(OC)cccc3C5=O)O[C@@H](C)[C@H]2O)(c2ccc(OC)cc2)c2ccc(OC)cc2)c1 [compound 17] | pKa of the most basic nitrogen [3]: 8.4; half-life at 0.1 mg/mL ([1]; API-trityl linker construct in buffer, pH 5.0, 37 °C, read-out: t1/2 pH 5.0 (converted)): < 1 h; half-life at 0.1 mg/mL ([1]; API-trityl linker construct in buffer, pH 7.4, 37 °C, values for 17 are estimations (doxorubicin precipitation), read-out: t1/2 pH 7.4 (converted)): ~6 h
> 72 | – | > 72 | C=C(C)C(=O)NCCCNC(=O)c1cccc(C(Nc2ccn([C@@H]3O[C@H](CO)[C@@H](O)C3(F)F)c(=O)n2)(c2ccc(OC)cc2)c2ccc(OC)cc2)c1 [compound 18] | t1/2 pH 3.0 (h) ([1]; API-trityl linker construct in buffer, pH 3.0, 37 °C, listed as gem–trityl 18): 23.2 ± 0.5 h; half-life at 0.1 mg/mL ([1]; sodium phosphate buffer, pH 3, API-trityl linker construct in buffer, pH 3.0, 37 °C, read-out: t1/2 pH 3.0 (converted)): 23.3 h
